Drawing on PubChem BioAssay (NCI), this text covers TGI for 23 molecules.

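How tested: cells in 96-well plates exposed to compound for 48 hours at five concentrations. At the TGI there is no net growth.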 Some results are limits rather than exact numbers.

The first assay concerns OVCAR-8 ovarian. In words: growth of human tumour cells (NCI), 48 h.
Regarding `CCOC(=O)C1(C/C=C\CBr)CCCC1=O` (configuration not stated), the TGI was greater than 100 µM.
Same read-out and setting: with `Cc1ccc(OCC2OC(n3cnc4c(Cl)nc(Nc5cc(Cl)cc(Cl)c5)nc43)CC2Oc2ccc(C)cc2)cc1` (configuration not stated) the figure was greater than 100 µM; with `O=c1c(-c2ccccc2)nnc2n(Cc3ccccc3)c3ccccc3n12`, greater than 100 µM.

For the next assay, the system named is SK-MEL-5 melanoma. As to the kind of experiment: growth of human tumour cells (NCI), 48 h.
`COC1(OC)CCc2c(sc3ncnc(Nc4cccc(Br)c4)c23)C1` returned a TGI greater than 100 µM.
For `C=CCC(CCC(C)=O)(C(=O)OCC)C(=O)OCC`, the TGI is greater than 100 µM.
`CC(C)C(Cl)CCC(C)(Cl)C(=O)CBr` (configuration not stated) returned a TGI of 14.3 µM.
The same measure, in the same setting: with `Clc1ccc(C=Nc2ccc(Oc3ccc(Cl)cc3)c(Cl)c2)cc1` the figure was 49.5 µM; with `COC(=O)[C@H](Cc1ccccc1)NC(=O)c1ccc(CNC(=O)/C=C/c2csc(-c3ccccc3)n2)cc1`, 14.7 µM.
`N#Cc1ccccc1OCCOc1ccccc1C#N` had a TGI greater than 100 µM.
As for `CCN(/C=C1/C(=O)C(c2ccccc2)N(c2ccccc2)C1=O)CC` (configuration not stated), the TGI was greater than 10 µM.
Still for that read-out and setting: as for `CCOC(=O)c1cn(CC)c(=O)n2c1nc1ccccc12`, the figure is greater than 100 µM; as for `Cc1cccc2sc(NC(=O)NS(=O)(=O)n3cnc4ccccc43)nc12`, 56.3 µM; as for `COC(=O)C1CCC(=O)N1CN(C(C)=O)c1cccc(O)c1` (configuration not stated), greater than 100 µM.
In the case of `COc1ccc(-c2oc3cc(-c4cc5oc(-c6ccc(OC)cc6)c(-c6ccc(OC)cc6)c5cc4OC)c(OC)cc3c2-c2ccc(OC)cc2)cc1`, the TGI is greater than 100 µM.
Molecule `COc1ccc2nc3c(c(N)c2c1)C1CCC3C1(C)C` (configuration not stated) displayed a TGI of 25.7 µM.
`Oc1c(N2CCCCC2)cc(-c2cc(N3CCCCC3)c(O)c3ccccc23)c2ccccc12` showed a TGI of 34.6 µM.
With `C[C@H]1CC[C@@]2(OC1)O[C@H]1C[C@H]3[C@@H]4CC[C@@H]5C[C@@H](OC6OC(CO)C(O)C(O)C6OC6OC(CO)C(O)C(O)C6O)CC[C@]5(C)[C@H]4CC[C@]3(C)[C@H]1[C@@H]2C` (some centres not stated), the TGI is 3.93 µM.
Same read-out and setting: as for `O=C(NCCC1CNc2ccccc21)OCc1ccccc1` (configuration not stated), the figure is greater than 100 µM; as for `c1cc(-c2ccc(-c3ccsc3)s2)cs1`, greater than 100 µM; as for `Cc1cc(N(CCC#N)CCC#N)ccc1/C(N=Nc1ccccc1)=N\NC(=O)c1cc(Cl)ccc1O`, 46.5 µM.
Same read-out and setting: as for `Cc1ccc(S[C@@](C=O)(NC(=O)OCc2ccccc2)C(F)(F)F)cc1`, the figure is 41.4 µM; as for `CCOc1cnc(C(O)(c2ccccc2)c2ccccc2)o1`, greater than 100 µM.
Molecule `COC(CN(C)C(=S)Nc1cccc2ccccc12)OC` displayed a TGI greater than 10 µM.
On the same count and under the same terms, as for `CCOC(=O)C1(C/C=C\CBr)CCCC1=O` (configuration not stated), the figure is greater than 100 µM; as for `Cc1ccc(OCC2OC(n3cnc4c(Cl)nc(Nc5cc(Cl)cc(Cl)c5)nc43)CC2Oc2ccc(C)cc2)cc1` (configuration not stated), greater than 100 µM; as for `O=c1c(-c2ccccc2)nnc2n(Cc3ccccc3)c3ccccc3n12`, greater than 100 µM.

The test system of the next assay is TK-10 renal. In words: growth of human tumour cells (NCI), 48 h.
Molecule `COC1(OC)CCc2c(sc3ncnc(Nc4cccc(Br)c4)c23)C1` displayed a TGI greater than 100 µM.
Regarding `C=CCC(CCC(C)=O)(C(=O)OCC)C(=O)OCC`, the TGI is greater than 100 µM.
Consider `CC(C)C(Cl)CCC(C)(Cl)C(=O)CBr` (configuration not stated), for which the TGI is 13.7 µM.
`Clc1ccc(C=Nc2ccc(Oc3ccc(Cl)cc3)c(Cl)c2)cc1` gave a TGI greater than 100 µM.
Still for that read-out and setting: with `COC(=O)[C@H](Cc1ccccc1)NC(=O)c1ccc(CNC(=O)/C=C/c2csc(-c3ccccc3)n2)cc1` the figure was 45.4 µM; with `N#Cc1ccccc1OCCOc1ccccc1C#N`, greater than 100 µM.
Molecule `CCN(/C=C1/C(=O)C(c2ccccc2)N(c2ccccc2)C1=O)CC` (configuration not stated) displayed a TGI greater than 10 µM.
On the same count and under the same terms, with `Cc1cccc2sc(NC(=O)NS(=O)(=O)n3cnc4ccccc43)nc12` the figure was greater than 100 µM; with `COC(=O)C1CCC(=O)N1CN(C(C)=O)c1cccc(O)c1` (configuration not stated), greater than 100 µM; with `COc1ccc(-c2oc3cc(-c4cc5oc(-c6ccc(OC)cc6)c(-c6ccc(OC)cc6)c5cc4OC)c(OC)cc3c2-c2ccc(OC)cc2)cc1`, greater than 100 µM.
Molecule `COc1ccc2nc3c(c(N)c2c1)C1CCC3C1(C)C` (configuration not stated) came in with a TGI greater than 100 µM.
In turn, `Oc1c(N2CCCCC2)cc(-c2cc(N3CCCCC3)c(O)c3ccccc23)c2ccccc12` registered a TGI greater than 100 µM.
Still for that read-out and setting: with `C[C@H]1CC[C@@]2(OC1)O[C@H]1C[C@H]3[C@@H]4CC[C@@H]5C[C@@H](OC6OC(CO)C(O)C(O)C6OC6OC(CO)C(O)C(O)C6O)CC[C@]5(C)[C@H]4CC[C@]3(C)[C@H]1[C@@H]2C` (some centres not stated) the figure was 3.61 µM; with `c1cc(-c2ccc(-c3ccsc3)s2)cs1`, greater than 100 µM; with `Cc1cc(N(CCC#N)CCC#N)ccc1/C(N=Nc1ccccc1)=N\NC(=O)c1cc(Cl)ccc1O`, 52.2 µM.
With `COC(CN(C)C(=S)Nc1cccc2ccccc12)OC`, the TGI was greater than 10 µM.
Consider `CCOC(=O)C1(C/C=C\CBr)CCCC1=O` (configuration not stated), for which the TGI turned out to be 39 µM.
The molecule `O=c1c(-c2ccccc2)nnc2n(Cc3ccccc3)c3ccccc3n12` displayed a TGI greater than 100 µM.

The subject of the next assay is UACC-257 melanoma. In words: growth of human tumour cells (NCI), 48 h.
Take `COC1(OC)CCc2c(sc3ncnc(Nc4cccc(Br)c4)c23)C1`: the TGI is greater than 100 µM.
With `C=CCC(CCC(C)=O)(C(=O)OCC)C(=O)OCC`, the TGI was greater than 100 µM.
`CC(C)C(Cl)CCC(C)(Cl)C(=O)CBr` (configuration not stated) had a TGI of 16.6 µM.
As to `Clc1ccc(C=Nc2ccc(Oc3ccc(Cl)cc3)c(Cl)c2)cc1`, the TGI amounted to 77.5 µM.
For the molecule `COC(=O)[C@H](Cc1ccccc1)NC(=O)c1ccc(CNC(=O)/C=C/c2csc(-c3ccccc3)n2)cc1`, the TGI was 7.72 µM.
Molecule `N#Cc1ccccc1OCCOc1ccccc1C#N` gave a TGI greater than 100 µM.
Still for that read-out and setting: as for `CCN(/C=C1/C(=O)C(c2ccccc2)N(c2ccccc2)C1=O)CC` (configuration not stated), the figure is greater than 10 µM; as for `CCOC(=O)c1cn(CC)c(=O)n2c1nc1ccccc12`, greater than 100 µM.
Same read-out and setting: with `Cc1cccc2sc(NC(=O)NS(=O)(=O)n3cnc4ccccc43)nc12` the figure was 74.8 µM; with `COC(=O)C1CCC(=O)N1CN(C(C)=O)c1cccc(O)c1` (configuration not stated), greater than 100 µM.
As to `COc1ccc(-c2oc3cc(-c4cc5oc(-c6ccc(OC)cc6)c(-c6ccc(OC)cc6)c5cc4OC)c(OC)cc3c2-c2ccc(OC)cc2)cc1`, the TGI is greater than 100 µM.
As for `COc1ccc2nc3c(c(N)c2c1)C1CCC3C1(C)C` (configuration not stated), the TGI is 40.5 µM.
On the same count and under the same terms, with `Oc1c(N2CCCCC2)cc(-c2cc(N3CCCCC3)c(O)c3ccccc23)c2ccccc12` the figure was 28.5 µM; with `C[C@H]1CC[C@@]2(OC1)O[C@H]1C[C@H]3[C@@H]4CC[C@@H]5C[C@@H](OC6OC(CO)C(O)C(O)C6OC6OC(CO)C(O)C(O)C6O)CC[C@]5(C)[C@H]4CC[C@]3(C)[C@H]1[C@@H]2C` (some centres not stated), 3.86 µM; with `O=C(NCCC1CNc2ccccc21)OCc1ccccc1` (configuration not stated), greater than 100 µM.
Consider `c1cc(-c2ccc(-c3ccsc3)s2)cs1`, for which the TGI is greater than 100 µM.
The molecule `Cc1cc(N(CCC#N)CCC#N)ccc1/C(N=Nc1ccccc1)=N\NC(=O)c1cc(Cl)ccc1O` displayed a TGI of 40.5 µM.
As to `Cc1ccc(S[C@@](C=O)(NC(=O)OCc2ccccc2)C(F)(F)F)cc1`, the TGI was greater than 100 µM.
`CCOc1cnc(C(O)(c2ccccc2)c2ccccc2)o1` registered a TGI greater than 100 µM.
Take `COC(CN(C)C(=S)Nc1cccc2ccccc12)OC`: the TGI was greater than 10 µM.
In the case of `CCOC(=O)C1(C/C=C\CBr)CCCC1=O` (configuration not stated), the TGI is greater than 100 µM.
Same read-out and setting: with `Cc1ccc(OCC2OC(n3cnc4c(Cl)nc(Nc5cc(Cl)cc(Cl)c5)nc43)CC2Oc2ccc(C)cc2)cc1` (configuration not stated) the figure was greater than 100 µM; with `O=c1c(-c2ccccc2)nnc2n(Cc3ccccc3)c3ccccc3n12`, greater than 100 µM.
